Test results reported in patent US4711958A, “Morpholine containing amino acid derivatives” (priority 1986, dated 1987).
pIC50: −log10 of the molar value.

Key:
renin [1] = biological target: T1, renin (Homo sapiens, UniProt P00797); assay: Renin inhibitory effect in a human high renin plasma; type: biochemical; design: 500 μl of human high renin plasma; from tissue; host or cells: human high renin plasma; conditions: pH 7.0, 37° C., 60 minutes, read-out: IC50 (molar concentration producing a 50% inhibition)
T1 sequence (P00797 67-406): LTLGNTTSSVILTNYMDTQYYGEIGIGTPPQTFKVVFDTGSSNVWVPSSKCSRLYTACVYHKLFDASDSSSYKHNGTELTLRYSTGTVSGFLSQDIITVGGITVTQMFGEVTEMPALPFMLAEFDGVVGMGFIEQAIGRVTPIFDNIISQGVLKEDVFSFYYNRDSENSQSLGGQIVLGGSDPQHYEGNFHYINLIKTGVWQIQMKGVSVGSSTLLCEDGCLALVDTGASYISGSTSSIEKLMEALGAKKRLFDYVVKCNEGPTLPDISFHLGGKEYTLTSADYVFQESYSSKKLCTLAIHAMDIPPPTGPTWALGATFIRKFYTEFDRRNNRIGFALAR
Protocol: Renin inhibitory effect in a human high renin plasma
A mixture of 350 μl of a 0.5 M phosphate buffer (pH 7.0) containing 14 mM EDTA.2Na and a 0.3% neomycin sulfate, 50 μl of a 20 mM L-phenylalanyl-L-alanyl-L-proline as an angiotensin converting enzyme inhibitor and 100 μl of dimethyl sulfoxide solution containing an amino acid derivative of the present invention was added to 500 μl of human high renin plasma. Two hundred μl of the mixture was placed on an ice bath, at 4° C., and remaining mixture (800 μl ) was incubated for 60 minutes at 37° C. on a water bath. Two hundred μl of the incubated remaining mixture was chilled immediately on an ice bath, and the amount (A) of angiotensin I produced was determined by radioimmunoassay using renin riabead kit (DAINABOT).
The amount (B) of angiotensin I in the mixture placed on an ice bath at 4° C. was also determined by radioimmunoassay.
As a control, the same procedure as above was carried out by using 100 μl of dimethyl sulfoxide alone in place of 100 μl of dimethyl sulfoxide solution containing an amino acid compound of the present invention.
The net amount was estimated as the difference between A and B.
The inhibitory effect was calculated by the following equation. [formula]

renin [2] = biological target: T1, renin; assay: Inhibitory effect on human renin-sheep renin substrate reaction system in vitro; type: biochemical; conditions: pH 7.4, 37° C., 15 minutes, read-out: IC50 (molar concentration producing a 50% inhibition)
Protocol: Inhibitory effect on human renin-sheep renin substrate reaction system in vitro
The mixture was incubated for 15 minutes on a water bath at 37° C., and the reaction mixture was allowed to stand for 5 minutes on a water bath at 100° C. to stop the reaction. After cooling, 200 μl of the solution was taken up and the amount of angiotensin I produced by the addition of renin was determined by radioimmunoassay using renin riabead kit (DAINABOT).
The inhibitory effect was calculated by the following equation.
As a control, the same procedure as above was carried out by using 50 μl of dimethyl sulfoxide alone in place of the 50 μl of dimethyl sulfoxide solution containing an amino acid compound of the present invention. [formula]

plasma renin = assay: Renin inhibitory effect in plasma on common marmoset (high renin state, oral); type: in vivo; conditions: oral 30 mg/kg
Protocol: Renin inhibitory effect in plasma on common marmoset
The experiment was carried out by using common marmoset as described in K. G. Hofbauer et al., Clinical and Experimental hypertension, Vol. A5, Nos. 7 & 8 (1983), pages 1237-1247.
Furosemide was administered orally three times to common marmoset having a lower salt diet at 15 mg per Kilogram per day every other day to create a high renin state. The experiment was carried out on the third day after the last furosemide dose.
Conscious female and male marmosets weighing 335 to 375 g were placed into small restraining chair, and by using a catheter into the femoral artery, blood collecting was carried out at intervals of 20, 40, 60, 120, 180 and 300 minutes.
Collected blood samples were centrifuged at 1200 g for 15 minutes at 4° C. Two hundred μl of the plasma was taken up and incubated for 60 minutes at 37° C., and the plasma renin activity was measured by radioimmunoassay using renin riabead kit (DAINABOT).
Compound A of this invention was dissolved in dilute hydrochloric acid, and administered orally at single dose of 30 mg/kg using catheter.

[3] = Hypotensive effect in marmoset (high renin state, oral); type: in vivo, common marmoset; conditions: conscious male marmoset, oral 30 mg/kg, tail cuff, Control 89.3
Protocol: Hypotensive effect in marmoset
The experiment was carried out by using common marmoset as described in K. G. Hofbauer et al., Clinical and Experimental Hypertension, Vol. A5, Nos. 7 & 8 (1983), pages 1237-1247.
Furosemide was administered orally three times to common marmoset at 15 mg per kilogram per day every other day to create a high renin state. Blood pressure of conscious marmoset was measured on the third day after the last furosemide dose.
A conscious male marmoset weighing 460 g was placed into small restraining chair. Blood pressure was measured on the tail cuff method using pretismograph. Compound C was dissolved in dilute hydrochloric acid, and administered orally at 30 mg/kg by using a catheter.

Compound | pIC50 (renin [1]) | pIC50 (renin [2]) | other results
CC(C)OC(=O)C(O)[C@H](CC1CCCCC1)NC(=O)[C@H](Cc1c[nH]cn1)NC(=O)C(CC(=O)N1CCOCC1)Cc1cccc2ccccc12 (mixture of isomers) [Compound A, (2RS, 3S)-3-{N-[2-(1-Naphthylmethyl)-3-(morpholinocarbonyl)propionyl]-L-histidyl)amino-4-cyclohexyl-2-hydroxybutyric acid isopropyl ester] | 8.00 | 8.19 | Inhibition percent of plasma renin activity (plasma renin; 20 minutes after administration, 3 animals): 68.2%; Inhibition percent of plasma renin activity (plasma renin; 40 minutes after administration, 3 animals): 88.1%; Inhibition percent of plasma renin activity (plasma renin; 60 minutes after administration, 3 animals): 87.1%; Inhibition percent of plasma renin activity (plasma renin; 120 minutes after administration, 3 animals): 88.8%; Inhibition percent of plasma renin activity (plasma renin; 180 minutes after administration, 3 animals): 79.6%; Inhibition percent of plasma renin activity (plasma renin; 300 minutes after administration, 2 animals): 53.4%
O=C(N[C@@H](Cc1c[nH]cn1)C(=O)N[C@@H](CC1CCCCC1)C(O)C(=O)OC1CCCCC1)C(CC(=O)N1CCOCC1)Cc1cccc2ccccc12 (mixture of isomers) [Compound E, (2RS, 3S)-3-{N-[2-(1-Naphthylmethyl)-3-(morpholinocarbonyl)propionyl]-L-histidyl}amino-4-cyclohexyl-2-hydroxybutyric acid cyclohexyl ester] | 7.52 | 8.18 | –
O=C(N[C@@H](Cc1c[nH]cn1)C(=O)N[C@@H](CC1CCCCC1)C(O)C(=O)N1CCOCC1)C(CC(=O)N1CCOCC1)Cc1cccc2ccccc12 (mixture of isomers) [Compound F, 4-[(2RS, 3S)-3-{N-[2-(1-Naphthylmethyl)-3-(morpholinocarbonyl)propionyl]-L-histidyl}amino-4-cyclohexyl-2-hydroxybutyryl]morpholine] | 6.89 | 6.43 | –
O=C(N[C@@H](Cc1c[nH]cn1)C(=O)N[C@@H](CC1CCCCC1)C(O)C(=O)OC(CF)CF)C(CC(=O)N1CCOCC1)Cc1cccc2ccccc12 (mixture of isomers) [Compound G, (2RS, 3S)-3-{N-[2-(1-Naphthylmethyl)-3-(morpholinocarbonyl)propionyl]-L-histidyl}amino-4-cyclohexyl-2-hydroxybutyric acid 1,3-difluoro-2-propyl ester] | 8.39 | 8.54 | –
O=C(N[C@@H](Cc1c[nH]cn1)C(=O)N[C@@H](CC1CCCCC1)C(O)C(=O)OC1CCCC1)C(CC(=O)N1CCOCC1)Cc1cccc2ccccc12 (mixture of isomers) [Compound C, (2RS, 3S)-3-{N-[2-(1-Naphthylmethyl)-3-(morpholinocarbonyl)propionyl]-L-histidyl)amino-4-cyclohexyl-2-hydroxybutyric acid cyclopentyl ester] | 8.17 | 8.60 | Blood pressure ([3]; 0.5 hours after administration): 78.0 mmHg; Blood pressure ([3]; 1 hour after administration): 73.3 mmHg; Blood pressure ([3]; 2 hours after administration): 66.0 mmHg; Blood pressure ([3]; 3 hours after administration): 71.0 mmHg; Blood pressure ([3]; 5 hours after administration): 71.8 mmHg; Blood pressure ([3]; 7 hours after administration): 71.7 mmHg
CC(C)CNC(=O)C(O)[C@H](CC1CCCCC1)NC(=O)[C@H](Cc1c[nH]cn1)NC(=O)C(CC(=O)N1CCOCC1)Cc1cccc2ccccc12 (mixture of isomers) [Compound B, (2RS, 3S)-3-{N-[2-(1-Naphthylmethyl)-3-(morpholinocarbonyl)propionyl]-L-histidyl}amino-4-cyclohexyl-2-hydroxy-N-isobutylbutyramide] | 6.59 | 6.54 | –
CC(C)OC(=O)[C@H](O)[C@H](CC1CCCCC1)NC(=O)[C@H](Cc1c[nH]cn1)NC(=O)C(CC(=O)N1CCOCC1)Cc1cccc2ccccc12 (stereo partly drawn) [Compound D, (2R, 3S)-3-{N-[2-(1-Naphthylmethyl)-3-(morpholinocarbonyl)propionyl]-L-histidyl}amino-4-cyclohexyl-2-hydroxybutyric acid isopropyl ester] | 8.33 | 8.62 | –
